Data on 1 compound can be found in ChEMBL document CHEMBL1201862, “PubChem BioAssay data set” (2004).

What all share (format): functional
The target of assay [1] is T1, Mu-type opioid receptor (Homo sapiens, UniProt P35372). Description: SAR Analysis of Antagonists of the MOR Receptor using an Image-Based Assay - Set 2. [Related pubchem assays (depositor defined):AID1777, AID1785, AID1786, AID1966, AID2133, AID2136, AID2284, AID2285, AID2420].
The target of assay [2] is T1, Mu-type opioid receptor. Kind of assay: SAR Analysis of Agonists of the MOR Receptor using an Image-Based Assay - Set 2. [Related pubchem assays (depositor defined):AID1777, AID1785, AID1786, AID1966, AID2133, AID2136, AID2284, AID2285, AID2352].
Assay [3] has as its target T2, Kappa-type opioid receptor (Homo sapiens, UniProt P41145). Kind of assay: SAR analysis of small molecule agonists of the kappa opioid receptor via a luminescent beta-arrestin assay - Set 2. [Related pubchem assays (depositor defined):AID1777, AID1785, AID1786, AID1966, AID2133, AID2136, AID2284, AID449737].
The target in assay [4] is T2, Kappa-type opioid receptor. Description: SAR analysis of Antagonists of the Kappa Opioid Receptor (KOR) using an Image-Based Assay - Set 2. [Related pubchem assays (depositor defined):AID1777, AID1785, AID1786, AID1966, AID2133, AID2136, AID2284, AID2285, AID2348].
Assay [5] deals with T3, Delta-type opioid receptor (Homo sapiens, UniProt P41143). Kind of assay: SAR Analysis of Antagonists of the DOR Receptor using an Image-Based Assay - Set 2. [Related pubchem assays (depositor defined):AID1777, AID1785, AID1786, AID1966, AID2133, AID2136, AID2284, AID2285, AID2357].
The target in assay [6] is T3, Delta-type opioid receptor. Kind of assay: SAR Analysis of Agonists of the DOR Receptor using an Image-Based Assay - Set 2. [Related pubchem assays (depositor defined):AID1777, AID1785, AID1786, AID1966, AID2133, AID2136, AID2284, AID2285, AID2370].
Assay [7] deals with T2, Kappa-type opioid receptor. Kind of assay: SAR analysis of Agonists of the Kappa Opioid Receptor (KOR) using an Image-Based Assay - Set 2. [Related pubchem assays (depositor defined):AID1777, AID1786, AID1966, AID2133, AID2136, AID2284, AID2285, AID2359].

Activity calls are given as the source filed them. Unless noted, the rule behind the calls is not given here.

T2 sequence (P41145 whole entry): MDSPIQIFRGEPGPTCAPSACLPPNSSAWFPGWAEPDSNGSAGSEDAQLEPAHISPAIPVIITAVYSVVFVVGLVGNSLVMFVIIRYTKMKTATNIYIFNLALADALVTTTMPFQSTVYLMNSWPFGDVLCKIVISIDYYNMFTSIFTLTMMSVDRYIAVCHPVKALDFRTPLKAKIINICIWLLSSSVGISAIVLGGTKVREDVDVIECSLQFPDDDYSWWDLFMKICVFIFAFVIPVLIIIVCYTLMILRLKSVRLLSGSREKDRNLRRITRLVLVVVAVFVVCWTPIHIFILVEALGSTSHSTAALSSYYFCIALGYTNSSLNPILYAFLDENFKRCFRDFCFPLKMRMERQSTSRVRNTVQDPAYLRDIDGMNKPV
T3 sequence (P41143 whole entry): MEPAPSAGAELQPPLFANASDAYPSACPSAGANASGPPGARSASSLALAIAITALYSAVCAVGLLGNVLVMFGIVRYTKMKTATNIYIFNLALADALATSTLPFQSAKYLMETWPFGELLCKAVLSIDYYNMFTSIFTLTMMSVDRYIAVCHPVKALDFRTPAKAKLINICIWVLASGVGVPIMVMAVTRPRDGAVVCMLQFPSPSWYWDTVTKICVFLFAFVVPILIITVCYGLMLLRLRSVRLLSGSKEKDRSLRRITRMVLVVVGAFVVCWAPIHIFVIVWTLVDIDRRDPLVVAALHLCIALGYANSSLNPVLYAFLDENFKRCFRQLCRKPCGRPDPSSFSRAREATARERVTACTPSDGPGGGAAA
T1 sequence (P35372 whole entry): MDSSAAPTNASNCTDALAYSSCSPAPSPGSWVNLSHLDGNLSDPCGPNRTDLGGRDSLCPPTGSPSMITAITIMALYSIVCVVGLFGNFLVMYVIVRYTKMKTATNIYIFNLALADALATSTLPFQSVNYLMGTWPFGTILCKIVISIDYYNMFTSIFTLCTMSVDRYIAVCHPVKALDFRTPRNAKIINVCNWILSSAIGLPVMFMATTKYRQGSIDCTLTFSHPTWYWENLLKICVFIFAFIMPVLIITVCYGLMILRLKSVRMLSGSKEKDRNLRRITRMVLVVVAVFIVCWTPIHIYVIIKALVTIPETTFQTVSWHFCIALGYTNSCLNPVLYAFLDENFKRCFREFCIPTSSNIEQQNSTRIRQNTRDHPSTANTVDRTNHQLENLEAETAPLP

Take `COc1ccc(CSc2nnc(-c3ccccn3)n2Cc2cccs2)cc1`: the IC50 in assay [1], in assay [4] and in assay [5] was > 32 µM (inactive) each time. Besides, the EC50 in assay [2] is > 32 µM (inactive); in assay [3], 9.61 µM (active); in assay [6], > 32 µM (inactive); in assay [7], 5.98 µM (active).

As usually defined, the IC50 is the concentration that inhibits the measured activity by half. As usually defined, the EC50 is the concentration that produces a half-maximal response.
